Assay results: paper PMC3433420 (PLoS ONE, 2012)
Residues, ends and D or L forms follow the SMILES beside them.

Columns and labels:
Test in all cases: In-house protein microarrays (with or without 5 mM DTT), protein named per line
Assay type in all cases: binding
SH2 and PTB domains [1] = molecular target: T1, SH2 and PTB domains (Homo sapiens, UniProt P42684); settings: protein ABL2
T1 construct: thioredoxin; made in house; host or cells: BL21(DE3)pLysS E. coli
Method in brief: (§1)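 KD values come from rhodamine fluorescence of duplicate spots after subtraction of a thioredoxin control. Domains were printed at ~40 µM on aldehyde slides, blocked 1 h at room temperature in pH 7.8 HEPES/KCl buffer with 5 mM DTT and 1% BSA, then peptide-probed.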

SH2 and PTB domains [2] = molecular target: T2, SH2 and PTB domains (Homo sapiens, UniProt Q08881); settings: protein ITK
T2 construct: thioredoxin; made in house; host or cells: BL21(DE3)pLysS E. coli
T2 sequence (Q08881 1-620): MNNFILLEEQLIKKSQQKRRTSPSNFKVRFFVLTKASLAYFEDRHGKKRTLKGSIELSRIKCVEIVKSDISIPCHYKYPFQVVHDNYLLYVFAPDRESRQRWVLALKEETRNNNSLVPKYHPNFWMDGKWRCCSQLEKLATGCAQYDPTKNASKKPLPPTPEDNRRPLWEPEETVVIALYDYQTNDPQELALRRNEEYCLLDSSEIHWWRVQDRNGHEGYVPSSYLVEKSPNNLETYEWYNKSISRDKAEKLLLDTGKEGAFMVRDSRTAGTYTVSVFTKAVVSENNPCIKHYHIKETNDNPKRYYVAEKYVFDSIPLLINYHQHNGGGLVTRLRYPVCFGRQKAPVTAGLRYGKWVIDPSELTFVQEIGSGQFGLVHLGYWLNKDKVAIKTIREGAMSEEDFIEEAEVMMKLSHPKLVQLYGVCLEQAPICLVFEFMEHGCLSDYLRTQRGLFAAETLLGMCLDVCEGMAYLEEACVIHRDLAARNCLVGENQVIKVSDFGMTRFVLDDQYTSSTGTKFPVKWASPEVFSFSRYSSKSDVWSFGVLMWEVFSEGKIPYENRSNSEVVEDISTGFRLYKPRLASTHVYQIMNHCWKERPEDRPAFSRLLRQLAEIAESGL
Method in brief: as §1

SH2 and PTB domains [3] = molecular target: T3, SH2 and PTB domains (Homo sapiens, UniProt Q96JZ2); settings: protein HSH2D; PM assay replicate # 39307; array fabrication # 39286
T3 construct: thioredoxin; made in house; host or cells: BL21(DE3)pLysS E. coli
Method in brief: as §1

SH2 and PTB domains [4] = molecular target: T4, SH2 and PTB domains (Homo sapiens, UniProt P08631); settings: protein HCK
T4 construct: thioredoxin; made in house; host or cells: BL21(DE3)pLysS E. coli
Method in brief: as §1

SH2 and PTB domains [5] = molecular target: T5, SH2 and PTB domains (Homo sapiens, UniProt P29350)
T5 construct: thioredoxin; made in house; host or cells: BL21(DE3)pLysS E. coli
Method in brief: as §1

SH2 and PTB domains [6] = molecular target: T6, SH2 and PTB domains (Homo sapiens, UniProt P29353); settings: protein SHC1, array fabrication # 39329
T6 construct: thioredoxin; made in house; host or cells: BL21(DE3)pLysS E. coli
T6 sequence (P29353 1-583): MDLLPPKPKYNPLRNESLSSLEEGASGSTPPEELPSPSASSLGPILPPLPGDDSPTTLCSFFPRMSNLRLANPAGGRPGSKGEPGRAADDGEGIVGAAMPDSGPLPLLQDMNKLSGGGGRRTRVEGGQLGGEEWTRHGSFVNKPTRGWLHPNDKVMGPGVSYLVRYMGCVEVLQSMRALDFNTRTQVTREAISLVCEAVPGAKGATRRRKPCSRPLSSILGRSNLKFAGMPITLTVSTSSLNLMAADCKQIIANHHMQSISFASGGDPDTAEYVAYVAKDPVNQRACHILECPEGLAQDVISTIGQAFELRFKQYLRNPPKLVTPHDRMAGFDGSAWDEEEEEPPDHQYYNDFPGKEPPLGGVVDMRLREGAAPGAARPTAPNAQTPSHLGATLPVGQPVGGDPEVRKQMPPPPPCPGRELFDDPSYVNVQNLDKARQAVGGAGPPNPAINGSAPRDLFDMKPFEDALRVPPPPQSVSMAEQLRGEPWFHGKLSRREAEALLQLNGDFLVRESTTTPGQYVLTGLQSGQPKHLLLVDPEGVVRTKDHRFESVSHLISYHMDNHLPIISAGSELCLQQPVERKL
Method in brief: as §1

[7] = PM assay replicate # 39307, array fabrication # 39286
[8] = PM assay replicate # 39337, array fabrication # 39329
[9] = PM assay replicate # 39336, array fabrication # 39329

T5 sequence (P29350 whole entry, the tested form may be a part): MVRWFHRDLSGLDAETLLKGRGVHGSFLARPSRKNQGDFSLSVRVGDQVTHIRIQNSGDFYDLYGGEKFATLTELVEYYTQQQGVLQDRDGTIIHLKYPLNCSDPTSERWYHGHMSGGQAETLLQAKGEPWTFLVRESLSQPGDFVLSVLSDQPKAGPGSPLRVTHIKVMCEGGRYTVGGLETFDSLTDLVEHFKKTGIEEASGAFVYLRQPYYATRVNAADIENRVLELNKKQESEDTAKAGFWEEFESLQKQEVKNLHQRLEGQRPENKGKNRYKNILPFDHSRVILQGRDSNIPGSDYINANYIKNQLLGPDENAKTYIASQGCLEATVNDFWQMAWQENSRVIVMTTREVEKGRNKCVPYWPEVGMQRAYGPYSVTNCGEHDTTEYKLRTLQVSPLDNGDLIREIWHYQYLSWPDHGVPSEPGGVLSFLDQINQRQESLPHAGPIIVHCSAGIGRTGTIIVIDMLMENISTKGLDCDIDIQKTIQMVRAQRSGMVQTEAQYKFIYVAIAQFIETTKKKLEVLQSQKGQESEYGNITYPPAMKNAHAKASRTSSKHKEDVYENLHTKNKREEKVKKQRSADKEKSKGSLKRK
T1 sequence (P42684 whole entry, the tested form may be a part): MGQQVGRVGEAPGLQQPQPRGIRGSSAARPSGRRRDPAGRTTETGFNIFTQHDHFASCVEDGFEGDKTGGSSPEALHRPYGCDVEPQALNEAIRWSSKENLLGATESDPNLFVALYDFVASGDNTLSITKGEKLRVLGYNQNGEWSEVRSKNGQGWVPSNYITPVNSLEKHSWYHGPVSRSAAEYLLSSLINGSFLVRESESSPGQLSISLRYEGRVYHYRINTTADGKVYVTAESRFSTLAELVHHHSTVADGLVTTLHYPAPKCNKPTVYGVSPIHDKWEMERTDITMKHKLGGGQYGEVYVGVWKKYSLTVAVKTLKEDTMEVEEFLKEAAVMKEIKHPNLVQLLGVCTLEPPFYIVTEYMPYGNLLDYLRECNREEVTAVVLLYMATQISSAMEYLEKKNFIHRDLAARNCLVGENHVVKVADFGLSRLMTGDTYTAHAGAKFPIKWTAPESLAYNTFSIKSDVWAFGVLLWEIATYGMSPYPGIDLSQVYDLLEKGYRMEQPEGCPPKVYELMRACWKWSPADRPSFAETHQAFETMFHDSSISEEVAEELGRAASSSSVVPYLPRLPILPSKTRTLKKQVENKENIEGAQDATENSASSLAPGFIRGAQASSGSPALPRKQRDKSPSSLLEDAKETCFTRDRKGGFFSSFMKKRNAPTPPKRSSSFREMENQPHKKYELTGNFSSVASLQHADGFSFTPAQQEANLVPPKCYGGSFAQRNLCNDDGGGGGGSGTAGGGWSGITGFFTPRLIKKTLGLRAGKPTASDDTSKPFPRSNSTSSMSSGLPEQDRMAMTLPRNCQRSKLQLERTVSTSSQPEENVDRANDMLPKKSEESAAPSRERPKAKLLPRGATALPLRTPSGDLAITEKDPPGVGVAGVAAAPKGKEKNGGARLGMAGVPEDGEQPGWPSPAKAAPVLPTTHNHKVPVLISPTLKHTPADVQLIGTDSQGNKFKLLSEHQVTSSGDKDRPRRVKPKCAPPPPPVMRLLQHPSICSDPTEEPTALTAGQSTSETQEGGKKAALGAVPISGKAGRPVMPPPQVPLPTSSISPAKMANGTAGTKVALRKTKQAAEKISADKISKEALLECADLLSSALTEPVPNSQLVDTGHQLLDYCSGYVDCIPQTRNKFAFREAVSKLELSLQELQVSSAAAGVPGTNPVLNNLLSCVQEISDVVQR
T4 sequence (P08631 whole entry, the tested form may be a part): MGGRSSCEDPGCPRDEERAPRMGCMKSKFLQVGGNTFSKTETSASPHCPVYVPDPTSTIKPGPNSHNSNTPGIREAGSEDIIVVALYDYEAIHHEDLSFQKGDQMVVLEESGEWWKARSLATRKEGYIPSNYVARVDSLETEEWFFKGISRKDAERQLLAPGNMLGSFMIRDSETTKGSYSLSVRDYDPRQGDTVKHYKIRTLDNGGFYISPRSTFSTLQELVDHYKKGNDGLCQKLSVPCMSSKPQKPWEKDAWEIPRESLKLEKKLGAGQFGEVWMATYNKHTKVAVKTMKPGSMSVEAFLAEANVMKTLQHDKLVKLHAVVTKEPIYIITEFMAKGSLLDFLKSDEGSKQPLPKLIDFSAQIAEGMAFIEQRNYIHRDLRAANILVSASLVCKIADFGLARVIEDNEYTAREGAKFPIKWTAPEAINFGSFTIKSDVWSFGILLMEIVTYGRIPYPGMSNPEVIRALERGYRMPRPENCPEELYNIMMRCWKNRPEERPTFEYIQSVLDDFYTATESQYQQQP
T3 sequence (Q96JZ2 whole entry, the tested form may be a part): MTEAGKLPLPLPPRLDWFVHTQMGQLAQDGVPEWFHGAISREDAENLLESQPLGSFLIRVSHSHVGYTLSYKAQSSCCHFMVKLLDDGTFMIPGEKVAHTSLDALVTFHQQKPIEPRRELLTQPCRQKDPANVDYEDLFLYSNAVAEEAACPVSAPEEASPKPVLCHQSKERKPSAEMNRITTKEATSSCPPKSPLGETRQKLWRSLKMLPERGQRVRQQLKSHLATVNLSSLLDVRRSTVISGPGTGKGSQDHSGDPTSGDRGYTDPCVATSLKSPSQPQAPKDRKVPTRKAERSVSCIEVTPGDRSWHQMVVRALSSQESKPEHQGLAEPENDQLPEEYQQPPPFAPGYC

## CCN(CC)c1ccc2c(-c3ccc(C(=O)N[C@@H](CC(N)=O)C(=O)NCC(=O)N4CCC[C@H]4C(=O)N4CCC[C@H]4C(=O)N[C@@H](CCCCN)C(=O)N[C@@H](C)C(=O)N[C@@H](CCC(=O)O)C(=O)N[C@@H](CC(=O)O)C(=O)N[C@@H](CCC(=O)O)C(=O)N[C@@H](Cc4ccc(OP(=O)(O)O)cc4)C(=O)N[C@H](C(=O)N[C@@H](CC(N)=O)C(=O)N[C@@H](CCC(=O)O)C(=O)N4CCC[C@H]4C(=O)N[C@@H](CC(C)C)C(=O)N[C@@H](Cc4ccc(O)cc4)C(=O)N[C@@H](CC(C)C)C(=O)N[C@@H](CC(=O)O)C(=O)O)C(C)C)cc3C(=O)[O-])c3ccc(=[N+](CC)CC)cc-3oc2c1 [ErbB4 1202 (18-mer)] (HELM PEPTIDE1{[CCN(CC)c1ccc2c(-c3ccc(C(=O)[*:2])cc3C(=O)[O-])c3ccc(=[N+](CC)CC)cc-3oc2c1].N.G.P.P.K.A.E.D.E.[O=C([C@H](Cc1ccc(OP(=O)(O)O)cc1)N[*:1])[*:2]].V.N.E.P.L.Y.L.D}$$$$V2.0)
SH2 and PTB domains [1]; [7]
  Kd: 1000 nM
SH2 and PTB domains [1]; [8]
  Kd: 970 nM
SH2 and PTB domains [2]; [7]
  Kd: 720 nM
SH2 and PTB domains [3]
  Kd: 970 nM

## CC[C@H](C)[C@H](NC(=O)[C@H](CC(N)=O)NC(=O)[C@H](CC(N)=O)NC(=O)[C@H](CCCCN)NC(=O)[C@H](CC(C)C)NC(=O)[C@H](Cc1ccc(OP(=O)(O)O)cc1)NC(=O)[C@H](CCC(=O)O)NC(=O)[C@H](C)NC(=O)[C@H](CCCCN)NC(=O)CNC(=O)[C@H](CC(C)C)NC(=O)[C@@H](NC(=O)[C@H](CC(N)=O)NC(=O)[C@H](C)NC(=O)[C@@H](N)Cc1ccccc1)[C@@H](C)O)C(=O)N[C@@H](CC(C)C)C(=O)N[C@@H](CO)C(=O)N[C@@H](CC(=O)O)C(=O)O [ErbB4 pY1221 (18-mer)] (HELM PEPTIDE1{F.A.N.T.L.G.K.A.E.[O=C([C@H](Cc1ccc(OP(=O)(O)O)cc1)N[*:1])[*:2]].L.K.N.N.I.L.S.D}$$$$V2.0)
SH2 and PTB domains [4]; [7]
  Kd: 70 nM
SH2 and PTB domains [5]; protein PTPN6-C, PM assay replicate # 39307, array fabrication # 39286
  Kd: 716010 nM
SH2 and PTB domains [1]; [7]
  Kd: 280 nM
SH2 and PTB domains [1]; PM assay replicate # 39352, array fabrication # 39336
  Kd: 910 nM
SH2 and PTB domains [3]
  Kd: 990 nM

## CC(C)C[C@H](NC(=O)[C@@H]1CCCN1)C(=O)N[C@@H](CCC(N)=O)C(=O)N[C@@H](CCCNC(=N)N)C(=O)N[C@@H](Cc1ccc(OP(=O)(O)O)cc1)C(=O)N[C@@H](CO)C(=O)N[C@@H](CCC(=O)O)C(=O)N[C@@H](CC(=O)O)C(=O)N1CCC[C@H]1C(=O)N[C@H](C(=O)N[C@H](C(=O)N1CCC[C@H]1C(=O)N[C@@H](CC(=O)O)C(=O)O)C(C)C)[C@@H](C)O [ErbB2 pY1112] (HELM PEPTIDE1{P.L.Q.R.[O=C([C@H](Cc1ccc(OP(=O)(O)O)cc1)N[*:1])[*:2]].S.E.D.P.T.V.P.D}$$$$V2.0)
SH2 and PTB domains [6]; PM assay replicate # 39331
  Kd: 1260 nM
SH2 and PTB domains [6]; PM assay replicate # 39336
  Kd: 3060 nM

## CC(C)C[C@H](NC(=O)[C@@H]1CCCN1C(=O)[C@H](C)NC(=O)[C@@H](NC(=O)[C@H](Cc1ccc(OP(=O)(O)O)cc1)NC(=O)CNC(=O)[C@H](CC(=O)O)NC(=O)[C@@H](NC(=O)[C@@H](N)CCC(=O)O)[C@@H](C)O)C(C)C)C(=O)N[C@H](C(=O)N[C@@H](CS)C(=O)N[C@@H](CO)C(=O)N[C@@H](CC(=O)O)C(=O)O)[C@@H](C)O [ErbB2 pY1127]
SH2 and PTB domains [4]; [9]
  Kd: 4360 nM
SH2 and PTB domains [4]; [8]
  Kd: 250 nM
SH2 and PTB domains [5]; protein PTPN6-NC, PM assay replicate # 39336, array fabrication # 39329
  Kd: 1620 nM
SH2 and PTB domains [5]; protein PTPN6-NC, PM assay replicate # 39337, array fabrication # 39329
  Kd: 1620 nM
SH2 and PTB domains [6]; PM assay replicate # 39336
  Kd: 980 nM
SH2 and PTB domains [6]; PM assay replicate # 39337
  Kd: 820 nM
SH2 and PTB domains [2]; [9]
  Kd: 800 nM
SH2 and PTB domains [2]; [8]
  Kd: 2580 nM
